Entries after “also recorded” stand apart in the source; their conditions may differ. Where two headings read alike, the source gives them in different places. Blank lines part the entries; values can stand above or below the molecule they belong to.
Legend:
[1] = target: human KV1.3 voltage gated K+ channel (Homo sapiens, UniProt P22001); assay: KV1.3 thallium influx assay in KV1.3 stably transfected CHO DUKX cells; conditions: for KV 1.3 IC50 / KV 1.3 Efficacy (inhibition of thallium influx as a % of positive control): thallium influx in KV1.3 cells; for KV 1.3 IC50: mean ± SD from two to three experiments; for Selectivity Fold (hERG over KV1.3): potency difference KV1.3 IC50 / hERG IC50, thallium influx assays; for KV 1.3 Efficacy (inhibition of thallium influx as a % of positive control): relative to 1 μM psoralen
Sequence of human KV1.3 voltage gated K+ channel (P22001 whole entry): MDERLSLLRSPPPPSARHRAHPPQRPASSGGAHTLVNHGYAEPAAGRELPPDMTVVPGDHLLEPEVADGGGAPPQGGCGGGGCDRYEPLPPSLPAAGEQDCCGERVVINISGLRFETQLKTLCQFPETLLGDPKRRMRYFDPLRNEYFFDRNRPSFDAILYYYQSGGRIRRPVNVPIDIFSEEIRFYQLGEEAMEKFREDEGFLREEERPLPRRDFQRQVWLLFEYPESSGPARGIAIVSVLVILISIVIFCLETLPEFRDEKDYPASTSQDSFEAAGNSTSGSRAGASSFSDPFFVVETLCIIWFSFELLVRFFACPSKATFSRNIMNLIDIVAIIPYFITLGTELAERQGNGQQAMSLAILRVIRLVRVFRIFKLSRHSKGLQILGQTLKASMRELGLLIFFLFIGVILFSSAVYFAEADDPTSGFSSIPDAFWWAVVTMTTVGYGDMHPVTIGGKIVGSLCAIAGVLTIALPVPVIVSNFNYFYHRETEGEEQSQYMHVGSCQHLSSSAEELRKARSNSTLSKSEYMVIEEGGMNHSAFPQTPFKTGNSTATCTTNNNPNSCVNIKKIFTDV

hERG channel [2] = target: T1, hERG channel (Homo sapiens, UniProt Q12809)
T1 sequence (Q12809 whole entry): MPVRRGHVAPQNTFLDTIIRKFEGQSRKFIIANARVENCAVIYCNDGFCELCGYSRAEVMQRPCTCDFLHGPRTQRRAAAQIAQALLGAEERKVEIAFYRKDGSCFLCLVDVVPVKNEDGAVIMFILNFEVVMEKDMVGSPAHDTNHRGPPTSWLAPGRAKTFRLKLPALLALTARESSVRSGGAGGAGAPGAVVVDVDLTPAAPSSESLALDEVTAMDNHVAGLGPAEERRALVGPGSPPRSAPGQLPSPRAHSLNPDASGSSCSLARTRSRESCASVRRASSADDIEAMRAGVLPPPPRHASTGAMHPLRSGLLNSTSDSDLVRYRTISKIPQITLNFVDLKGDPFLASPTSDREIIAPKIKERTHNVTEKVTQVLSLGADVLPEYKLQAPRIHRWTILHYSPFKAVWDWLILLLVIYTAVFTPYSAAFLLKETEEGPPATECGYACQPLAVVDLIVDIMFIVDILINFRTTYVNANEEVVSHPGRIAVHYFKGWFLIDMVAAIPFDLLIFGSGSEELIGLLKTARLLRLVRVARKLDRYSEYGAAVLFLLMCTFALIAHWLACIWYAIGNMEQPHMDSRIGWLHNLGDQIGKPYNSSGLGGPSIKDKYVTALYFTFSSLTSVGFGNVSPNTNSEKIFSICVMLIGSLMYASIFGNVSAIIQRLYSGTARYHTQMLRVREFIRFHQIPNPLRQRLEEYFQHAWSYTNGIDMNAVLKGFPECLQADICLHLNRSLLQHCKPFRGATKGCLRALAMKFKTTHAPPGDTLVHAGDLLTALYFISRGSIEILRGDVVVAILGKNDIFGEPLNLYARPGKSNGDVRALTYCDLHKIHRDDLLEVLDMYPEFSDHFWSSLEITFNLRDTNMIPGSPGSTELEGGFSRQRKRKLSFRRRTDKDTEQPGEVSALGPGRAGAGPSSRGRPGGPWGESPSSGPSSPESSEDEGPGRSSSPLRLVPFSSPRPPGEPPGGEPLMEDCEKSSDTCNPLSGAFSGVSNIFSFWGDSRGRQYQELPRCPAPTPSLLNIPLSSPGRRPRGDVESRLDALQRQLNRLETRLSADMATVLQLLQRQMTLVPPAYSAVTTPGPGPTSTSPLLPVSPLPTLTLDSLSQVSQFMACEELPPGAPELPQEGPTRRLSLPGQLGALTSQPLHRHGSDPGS

hERG channel [3] = target: T1, hERG channel; assay: FluxOR thallium influx assay in hERG transduced U-2 OS cells; conditions: for Confirmation Efficacy (inhibition of thallium influx as a % of positive control): confirmation study, hERG transduced cells, mean ± SD of three experiments; for IC50 in the thallium influx assay (QAC series follow-up): quaternary ammonium compound series and digitonin control, hERG cells
hERG channel [4] = target: T1, hERG channel; assay: Automated whole cell patch clamp, hERG tail current in hERG CHO-K1 cells
wild type U-2 OS cells = assay: FluxOR thallium influx assay in wild type; assay type: cell-based, human; conditions: non-hERG transduced cells
hERG channel [5] = target: T1, hERG channel; remark: listed apart in the source
[6] = tested on: hERG transduced U-2 OS cells; assay: in vitro; assay type: cell-based, human; conditions: for IC50: read-out: Cytotoxicity IC50 (cell viability, intracellular ATP content), up to 92 μM
in vitro = assay type: cell-based, human; conditions: human, hERG transduced U-2 OS cells
KV1.3 versus hERG [7] = target: T2, KV1.3 versus hERG (Homo sapiens, UniProt P22001); assay: KV1.3 thallium influx assay in KV1.3 stably transfected CHO DUKX cells; conditions: human
T2 sequence (P22001 whole entry): as the sequence (P22001 whole entry) above

KV1.3 versus hERG [8] = target: T2, KV1.3 versus hERG; assay: in vitro
[9] = automated whole cell patch clamp, hERG tail current, hERG CHO-K1 cells, room temperature
[10] = 30-minute treatment, hERG transduced U-2 OS cells
[11] = read-out: Patch clamp IC50, automated whole cell patch clamp, hERG tail current, hERG CHO-K1 cells, room temperature

Molecule: N=C(Nc1ccccc1)Nc1ccccc1 [1,3-diphenylguanidine]
- KV 1.3 IC50 [1]: Inactive

Molecule: Nc1ccc2cc3ccccc3cc2c1 [2-aminoanthracene]
- qHTS (two runs) Efficacy (inhibition of thallium influx as a % of positive control) (hERG channel [2]; human): 61 ± 3%
- Confirmation Efficacy (inhibition of thallium influx as a % of positive control) (hERG channel [3]): 67 ± 19%
- IC50 (hERG channel [4]): > 100 µM
- Inhibition of thallium influx in parental (wild type) cells (wild type U-2 OS cells): inhibitory effect

Molecule: CCCCCCc1ccc(-c2ccc(C#N)cc2)cc1 [4-N-hexyl-4′-cyanobiphenyl, 4′-N-hexyl-4-biphenylcarbonitrile]
- Confirmation IC50 (thallium influx, hERG) (hERG channel [2]): Inactive
- IC50 (hERG channel [2]): 8.2 ± 2.6 µM

Molecule: O=C([O-])c1c(Cl)c(Cl)c(Cl)c(Cl)c1-c1c2cc(Br)c(=O)c(Br)c-2oc2c(Br)c([O-])c(Br)cc12.[Na+].[Na+] [D&C red dye 27]
- Confirmation Efficacy (inhibition of thallium influx as a % of positive control) (hERG channel [2]): 173 ± 41%
- Inhibition of thallium influx in parental (wild type) cells (wild type U-2 OS cells): inhibitory effect
- IC50 (hERG channel [5]): > 100 µM

Molecule: C[N+](C)(C)Cc1ccccc1 [benzyltrimethylammonium chloride]
- IC50 in the thallium influx assay (QAC series follow-up) (hERG channel [3]): inactive
- Patch clamp IC50 (hERG channel [4]; [9]): inactive

Molecule: C[N+](C)(C)CCCCCCCCCC[N+](C)(C)C [decamethonium dibromide]
- IC50 in the thallium influx assay (QAC series follow-up) (hERG channel [3]): inactive
- Patch clamp IC50 (hERG channel [4]; [9]): inactive

Molecule: C[C@@H]1CC[C@@]2(OC1)O[C@H]1[C@@H](O)[C@H]3[C@@H]4CC[C@H]5C[C@@H](O[C@@H]6O[C@H](CO)[C@H](O[C@@H]7O[C@H](CO)[C@@H](O)[C@H](O[C@@H]8OC[C@@H](O)[C@H](O)[C@H]8O)[C@H]7O[C@@H]7O[C@H](CO)[C@H](O)[C@H](O[C@@H]8O[C@H](CO)[C@@H](O)[C@H](O)[C@H]8O)[C@H]7O)[C@H](O)[C@H]6O)[C@H](O)C[C@]5(C)[C@H]4CC[C@]3(C)[C@H]1[C@@H]2C [digitonin, reference compound]
- Inhibitory effect on hERG channel activity in the patch clamp experiment (hERG channel [4]; at 1 μM (the highest noncytotoxic concentration)): no inhibitory effect

- IC50 [1]: 5.2 ± 0.6 µM
- KV 1.3 Efficacy (inhibition of thallium influx as a % of positive control) [1]: 102 ± 22%
Molecule: CCCCCCCCCCCC[N+](C)(C)CCOc1ccccc1 [domiphen bromide]
- Maximum inhibition of cell viability [6, 10]: 33%
- IC50 at 30 min (in vitro): 65 µM
- Selectivity Fold (hERG over KV1.3) [1]: no selectivity
- selectivity ratio at 2 min (KV1.3 versus hERG [7]): 1.2
- IC50 (hERG channel [4]): 1.5 µM

- IC50 [1]: 30 ± 2 µM
- KV 1.3 Efficacy (inhibition of thallium influx as a % of positive control) [1]: 104 ± 10%
Molecule: Clc1ccc(COC(Cn2ccnc2)c2ccc(Cl)cc2Cl)cc1 (stereo not drawn) [econazole nitrate, reference compound]

Molecule: CN(C)c1ccc(C(=C2C=CC(=[N+](C)C)C=C2)c2ccccc2)cc1.CN(C)c1ccc(C(=C2C=CC(=[N+](C)C)C=C2)c2ccccc2)cc1.O=C(O)C(=O)O.O=C([O-])C(=O)O.O=C([O-])C(=O)O [malachite green oxalate]
- qHTS (two runs) Efficacy (inhibition of thallium influx as a % of positive control) (hERG channel [2]): 97 ± 3%
- Maximum inhibition of cell viability [6]: 72%
- IC50 [6, 10]: 31 µM
- Confirmation Efficacy (inhibition of thallium influx as a % of positive control) (hERG channel [3]): 108 ± 7%
- Selectivity Fold (hERG over KV1.3) [1]: 6.5 fold
- KV 1.3 IC50 [1]: either IC50 values >30 μM or were inactive
- KV 1.3 Efficacy (inhibition of thallium influx as a % of positive control) [1]: 89%
- IC50 (hERG channel [4]; [11]): 1.9 µM

Molecule: Clc1ccc(C(c2ccccc2Cl)C(Cl)(Cl)Cl)cc1 (stereo not drawn) [o,p′-DDT, 1,1,1-trichloro-2-(2-chlorophenyl)-2-(4-chlorophenyl)ethane]
- qHTS (two runs) Efficacy (inhibition of thallium influx as a % of positive control) (hERG channel [2]; human): 56 ± 2%
- selectivity ratio (KV1.3 versus hERG [8]): 1.6
- Confirmation Efficacy (inhibition of thallium influx as a % of positive control) (hERG channel [3]): 58 ± 8%
- IC50 [1]: 35 µM
- Selectivity Fold (hERG over KV1.3) [1]: no selectivity
- KV 1.3 IC50 [1]: either IC50 values >30 μM or were inactive
- KV 1.3 Efficacy (inhibition of thallium influx as a % of positive control) [1]: 61%
- IC50 (hERG channel [4]): 2.6 µM

Molecule: C=C[C@H]1C[N@@]2CC[C@H]1C[C@@H]2[C@@H](O)c1ccnc2ccc(OC)cc12 [quinidine, reference compound]
- KV 1.3 IC50 [1]: either IC50 values >30 μM or were inactive; also recorded: Inactive

Molecule: COC(=O)[C@H]1[C@H]2C[C@@H]3c4[nH]c5cc(OC)ccc5c4CCN3C[C@H]2C[C@@H](OC(=O)c2cc(OC)c(OC)c(OC)c2)[C@@H]1OC [reserpine, reference compound]
- IC50 (hERG channel [3]; Confirmation IC50 (thallium influx, hERG)): 4.9 ± 1.7 µM
- IC50 (hERG channel [3]; qHTS (two runs) IC50): 7.5 ± 3.5 µM
- IC50 [1]: 58 ± 18 µM
- KV 1.3 IC50 [1]: either IC50 values >30 μM or were inactive
- KV 1.3 Efficacy (inhibition of thallium influx as a % of positive control) [1]: 78 ± 7%
- selectivity ratio at 2 min (KV1.3 versus hERG [7]): 11.8
- IC50 (hERG channel [4]): 1.9 µM

Molecule: CCCCCCCC[N+](CCCCCCCC)(CCCCCCCC)CCCCCCCC.[Br-] [tetra-n-octylammonium bromide]
- qHTS (two runs) Efficacy (inhibition of thallium influx as a % of positive control) (hERG channel [2]): 102 ± 4%
- Maximum inhibition of cell viability [6, 10]: 50%
- IC50 [6, 10]: 34 µM
- Confirmation Efficacy (inhibition of thallium influx as a % of positive control) (hERG channel [3]): 100 ± 3%
- Selectivity Fold (hERG over KV1.3) [1]: 42 fold
- KV 1.3 Efficacy (inhibition of thallium influx as a % of positive control) [1]: 72 ± 16%
- IC50 (hERG channel [4]; read-out: IC50 in the patch clamp assay, as stated in abstract): 0.08 µM
- IC50 (hERG channel [4]; [11]): 0.082 µM

Molecule: COc1ccc(CCN(C)CCCC(C#N)(c2ccc(OC)c(OC)c2)C(C)C)cc1OC (stereo not drawn) [verapamil, reference compound]
- KV 1.3 Efficacy (inhibition of thallium influx as a % of positive control) [1]: 88 ± 12%

Molecule: tricresyl phosphate
- qHTS (two runs) Efficacy (inhibition of thallium influx as a % of positive control) (hERG channel [2]): 82 ± 11%
- Confirmation Efficacy (inhibition of thallium influx as a % of positive control) (hERG channel [3]): 68 ± 16%
- Selectivity Fold (hERG over KV1.3) [1]: 2.7 fold
- KV 1.3 Efficacy (inhibition of thallium influx as a % of positive control) [1]: 68 ± 17%
- IC50 (hERG channel [4]; [11]): 8.8 µM

Molecule: trixylenyl phosphate
- qHTS (two runs) Efficacy (inhibition of thallium influx as a % of positive control) (hERG channel [2]): 67 ± 12%
- Confirmation Efficacy (inhibition of thallium influx as a % of positive control) (hERG channel [3]): 43 ± 15%
- Patch clamp IC50 (hERG channel [4]; [9]): did not inhibit hERG channel activity
- IC50 (hERG channel [4]; [11]): > 100 µM

— publication PMC3079779 (Toxicology and applied pharmacology, 2011)
